Assay results reported in patent US11981658B2, “Substituted aminopyridine compounds as EGFR inhibitors” (YUHAN CORPORATION, priority 2021, dated 2024).
Read-outs that look alike come from different tables or passages of the source.

Legend:
EGFR wildtype (WT) = EGFR wildtype (WT) (Homo sapiens, UniProt P00533); test: Biochemical EGFR kinase inhibition assay (Lance Ultra TR-FRET), wildtype
In short: (§1)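 Step 1: compound in kinase buffer, 0.003–10 μM. Step 2: kinase reaction 1 h at room temperature. Step 4: TR-FRET read at 615/665 nm; IC50 calculated.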

EGFR L858R/C797S = EGFR L858R/C797S (Homo sapiens, UniProt P00533, C797S/L858R); test: Biochemical EGFR kinase inhibition assay (Lance Ultra TR-FRET), double mutant L858R/C797S
In short: as §1

EGFR L858R/T790M/C797S = EGFR L858R/T790M/C797S (Homo sapiens, UniProt P00533, C797S/L858R/T790M); test: Biochemical EGFR kinase inhibition assay (Lance Ultra TR-FRET), triple mutant L858R/T790M/C797S
In short: as §1

EGFR Del19/C797S = EGFR Del19/C797S (Homo sapiens, UniProt P00533, C797S/DEL746-750); test: Biochemical EGFR kinase inhibition assay (Lance Ultra TR-FRET), double mutant del19/C797S
In short: as §1

EGFR Del19/T790M/C797S = EGFR Del19/T790M/C797S (Homo sapiens, UniProt P00533, C797S/DEL746-750/T790M); test: Biochemical EGFR kinase inhibition assay (Lance Ultra TR-FRET), triple mutant del19/T790M/C797S
In short: as §1

[1] = IC50 L858R/C797S (nM), 100 μM ATP
[2] = IC50 L858R/T790M/C797S (nM), 100 μM ATP
[3] = IC50 Del19/C797S (nM), 100 μM ATP
[4] = IC50 Del19/T790M/C797S (nM), 100 μM ATP
[5] = Km ATP, read-out: IC50 WT (nM), Km ATP
[6] = Km ATP, read-out: IC50 L858R/C797S (nM), Km ATP
[7] = Km ATP, read-out: IC50 L858R/T790M/C797S (nM), Km ATP
[8] = Km ATP, read-out: IC50 Del19/C797S (nM), Km ATP
[9] = Km ATP, read-out: IC50 Del19/T790M/C797S (nM), Km ATP
[10] = ATP at Km, read-out: IC50 WT (nM), Km ATP
[11] = ATP at Km, read-out: IC50 L858R/C797S (nM), Km ATP
[12] = ATP at Km, read-out: IC50 L858R/T790M/C797S (nM), Km ATP
[13] = ATP at Km, read-out: IC50 Del19/C797S (nM), Km ATP
[14] = ATP at Km, read-out: IC50 Del19/T790M/C797S (nM), Km ATP

Chain of EGFR L858R/C797S (P00533 25-1210 C797S/L858R): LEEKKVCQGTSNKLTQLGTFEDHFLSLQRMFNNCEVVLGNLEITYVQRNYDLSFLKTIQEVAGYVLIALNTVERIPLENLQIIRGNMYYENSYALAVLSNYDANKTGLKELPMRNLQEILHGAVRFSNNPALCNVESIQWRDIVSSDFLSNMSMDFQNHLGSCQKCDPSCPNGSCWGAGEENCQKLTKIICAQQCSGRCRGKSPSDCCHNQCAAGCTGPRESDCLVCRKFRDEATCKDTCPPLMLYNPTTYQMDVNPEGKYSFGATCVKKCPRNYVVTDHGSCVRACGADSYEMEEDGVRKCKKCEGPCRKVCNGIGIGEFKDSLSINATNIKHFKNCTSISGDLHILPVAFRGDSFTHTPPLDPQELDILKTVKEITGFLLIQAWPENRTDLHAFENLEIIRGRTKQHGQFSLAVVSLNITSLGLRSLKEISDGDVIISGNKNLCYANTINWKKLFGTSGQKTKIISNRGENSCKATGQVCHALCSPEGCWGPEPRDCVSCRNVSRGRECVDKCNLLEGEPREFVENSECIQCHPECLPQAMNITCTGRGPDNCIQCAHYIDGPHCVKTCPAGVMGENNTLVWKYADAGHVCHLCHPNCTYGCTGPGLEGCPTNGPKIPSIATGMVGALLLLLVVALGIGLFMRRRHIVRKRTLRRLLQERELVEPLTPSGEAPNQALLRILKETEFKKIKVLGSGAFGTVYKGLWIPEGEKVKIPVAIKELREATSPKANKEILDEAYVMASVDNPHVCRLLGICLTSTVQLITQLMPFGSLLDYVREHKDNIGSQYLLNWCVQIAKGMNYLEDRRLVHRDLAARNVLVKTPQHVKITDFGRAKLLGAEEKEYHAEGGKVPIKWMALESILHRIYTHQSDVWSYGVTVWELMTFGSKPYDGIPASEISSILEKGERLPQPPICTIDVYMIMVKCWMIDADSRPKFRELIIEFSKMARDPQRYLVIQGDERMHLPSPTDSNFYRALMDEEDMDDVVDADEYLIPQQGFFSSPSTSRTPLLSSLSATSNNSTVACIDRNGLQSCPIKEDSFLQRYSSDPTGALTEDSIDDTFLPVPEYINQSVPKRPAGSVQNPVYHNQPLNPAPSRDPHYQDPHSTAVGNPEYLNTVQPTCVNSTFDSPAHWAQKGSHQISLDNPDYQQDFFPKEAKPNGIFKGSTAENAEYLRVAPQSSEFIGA
Chain of EGFR Del19/C797S (P00533 with tags, fused parts or gaps DEL746-750/C797S): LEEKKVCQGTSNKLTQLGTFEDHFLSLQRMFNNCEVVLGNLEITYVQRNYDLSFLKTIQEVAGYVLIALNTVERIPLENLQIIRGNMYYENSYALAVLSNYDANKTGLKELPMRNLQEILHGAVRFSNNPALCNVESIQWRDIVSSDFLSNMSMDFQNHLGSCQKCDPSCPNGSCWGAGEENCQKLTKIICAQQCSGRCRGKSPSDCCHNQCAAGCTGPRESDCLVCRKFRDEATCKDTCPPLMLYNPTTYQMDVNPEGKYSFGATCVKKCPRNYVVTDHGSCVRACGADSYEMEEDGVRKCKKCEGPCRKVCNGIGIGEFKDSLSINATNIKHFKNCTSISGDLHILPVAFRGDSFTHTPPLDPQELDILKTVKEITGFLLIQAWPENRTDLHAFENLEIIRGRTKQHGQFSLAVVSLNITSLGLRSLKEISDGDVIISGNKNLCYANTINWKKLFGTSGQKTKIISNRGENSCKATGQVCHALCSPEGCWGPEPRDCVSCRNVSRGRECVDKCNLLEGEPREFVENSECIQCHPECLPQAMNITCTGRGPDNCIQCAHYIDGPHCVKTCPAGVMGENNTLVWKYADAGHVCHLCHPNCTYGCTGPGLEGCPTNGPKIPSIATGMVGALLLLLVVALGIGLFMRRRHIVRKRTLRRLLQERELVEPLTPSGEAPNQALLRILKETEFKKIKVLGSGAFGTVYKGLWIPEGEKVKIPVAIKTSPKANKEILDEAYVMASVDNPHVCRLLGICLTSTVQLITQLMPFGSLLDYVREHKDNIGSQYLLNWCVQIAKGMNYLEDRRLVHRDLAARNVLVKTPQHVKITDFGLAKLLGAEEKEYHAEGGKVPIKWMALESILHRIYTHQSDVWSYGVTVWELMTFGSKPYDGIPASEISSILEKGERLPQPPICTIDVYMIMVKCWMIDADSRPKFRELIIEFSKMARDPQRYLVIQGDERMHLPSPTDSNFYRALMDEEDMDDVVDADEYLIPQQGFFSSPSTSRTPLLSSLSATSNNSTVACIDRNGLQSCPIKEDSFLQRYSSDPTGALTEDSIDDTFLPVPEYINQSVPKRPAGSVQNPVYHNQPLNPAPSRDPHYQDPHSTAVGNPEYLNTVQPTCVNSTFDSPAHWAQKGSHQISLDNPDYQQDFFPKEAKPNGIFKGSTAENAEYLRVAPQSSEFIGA
Chain of EGFR Del19/T790M/C797S (P00533 with tags, fused parts or gaps DEL746-750/T790M/C797S): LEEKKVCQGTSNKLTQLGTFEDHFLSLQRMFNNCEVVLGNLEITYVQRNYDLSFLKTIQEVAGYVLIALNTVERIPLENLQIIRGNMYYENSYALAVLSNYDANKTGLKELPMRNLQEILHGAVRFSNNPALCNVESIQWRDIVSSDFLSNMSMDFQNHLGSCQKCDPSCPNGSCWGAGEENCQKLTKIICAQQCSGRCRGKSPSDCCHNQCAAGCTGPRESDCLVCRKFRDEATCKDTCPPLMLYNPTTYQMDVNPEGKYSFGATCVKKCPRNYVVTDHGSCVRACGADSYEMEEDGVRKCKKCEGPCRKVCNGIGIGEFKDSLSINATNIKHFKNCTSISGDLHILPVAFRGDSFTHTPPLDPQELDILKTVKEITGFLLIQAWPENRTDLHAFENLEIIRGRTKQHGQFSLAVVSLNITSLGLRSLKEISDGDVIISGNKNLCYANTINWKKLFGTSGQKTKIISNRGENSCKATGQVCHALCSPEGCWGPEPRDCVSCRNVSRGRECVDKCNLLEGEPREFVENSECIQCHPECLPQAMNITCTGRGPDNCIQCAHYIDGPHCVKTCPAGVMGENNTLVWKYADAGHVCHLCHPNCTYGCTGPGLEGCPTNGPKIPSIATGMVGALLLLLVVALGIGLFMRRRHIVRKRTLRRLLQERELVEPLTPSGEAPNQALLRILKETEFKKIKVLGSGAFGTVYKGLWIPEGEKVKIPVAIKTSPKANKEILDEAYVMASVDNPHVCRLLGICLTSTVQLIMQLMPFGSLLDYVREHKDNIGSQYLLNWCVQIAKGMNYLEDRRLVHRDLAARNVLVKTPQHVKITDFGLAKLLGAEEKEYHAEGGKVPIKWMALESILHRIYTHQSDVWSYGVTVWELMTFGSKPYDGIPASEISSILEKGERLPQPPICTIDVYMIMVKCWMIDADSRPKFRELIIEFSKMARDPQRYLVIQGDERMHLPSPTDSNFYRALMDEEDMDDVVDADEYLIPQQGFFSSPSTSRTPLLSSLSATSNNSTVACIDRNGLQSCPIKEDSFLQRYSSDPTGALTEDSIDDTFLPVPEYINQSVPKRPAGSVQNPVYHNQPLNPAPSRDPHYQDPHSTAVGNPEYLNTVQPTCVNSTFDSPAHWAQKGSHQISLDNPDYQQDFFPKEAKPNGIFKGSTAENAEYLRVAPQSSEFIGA
Chain of EGFR wildtype (WT) (P00533 25-1210): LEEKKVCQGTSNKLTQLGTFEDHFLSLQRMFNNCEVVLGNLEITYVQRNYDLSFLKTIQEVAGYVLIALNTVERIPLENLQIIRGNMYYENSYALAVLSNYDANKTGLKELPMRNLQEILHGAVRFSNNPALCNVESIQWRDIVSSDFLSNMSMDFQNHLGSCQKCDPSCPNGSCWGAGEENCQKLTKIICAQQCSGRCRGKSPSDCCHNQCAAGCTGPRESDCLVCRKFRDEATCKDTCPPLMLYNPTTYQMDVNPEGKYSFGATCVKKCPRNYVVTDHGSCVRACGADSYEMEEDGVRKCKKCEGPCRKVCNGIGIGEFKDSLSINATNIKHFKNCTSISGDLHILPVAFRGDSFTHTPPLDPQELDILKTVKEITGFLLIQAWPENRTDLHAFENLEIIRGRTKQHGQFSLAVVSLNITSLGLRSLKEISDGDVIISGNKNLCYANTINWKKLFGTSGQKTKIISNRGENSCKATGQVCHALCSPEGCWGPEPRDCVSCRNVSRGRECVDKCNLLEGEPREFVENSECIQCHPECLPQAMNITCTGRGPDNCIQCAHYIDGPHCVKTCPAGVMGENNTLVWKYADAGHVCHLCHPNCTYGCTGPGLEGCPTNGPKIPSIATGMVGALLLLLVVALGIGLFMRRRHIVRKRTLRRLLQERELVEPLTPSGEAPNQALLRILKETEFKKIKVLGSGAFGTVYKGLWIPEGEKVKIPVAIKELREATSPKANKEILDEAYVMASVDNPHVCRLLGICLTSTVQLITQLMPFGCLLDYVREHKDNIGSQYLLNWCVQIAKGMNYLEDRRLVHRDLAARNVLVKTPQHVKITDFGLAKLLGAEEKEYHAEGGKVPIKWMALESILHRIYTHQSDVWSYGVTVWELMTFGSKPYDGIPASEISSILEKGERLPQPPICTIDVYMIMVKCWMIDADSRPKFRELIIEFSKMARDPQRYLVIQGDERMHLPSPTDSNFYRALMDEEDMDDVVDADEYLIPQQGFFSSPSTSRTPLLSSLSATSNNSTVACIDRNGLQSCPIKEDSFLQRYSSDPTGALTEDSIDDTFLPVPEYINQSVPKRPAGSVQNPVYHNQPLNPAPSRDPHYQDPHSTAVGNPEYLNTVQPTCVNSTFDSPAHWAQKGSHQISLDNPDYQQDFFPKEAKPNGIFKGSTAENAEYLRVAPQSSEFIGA

SMILES | IC50 (EGFR wildtype (WT); IC50 WT (nM), 100 μM ATP) [nM] | IC50 (EGFR L858R/C797S; [1]) [nM] | IC50 (EGFR L858R/T790M/C797S; [2]) [nM] | IC50 (EGFR Del19/C797S; [3]) [nM] | IC50 (EGFR Del19/T790M/C797S; [4]) [nM] | IC50 (EGFR wildtype (WT); Km ATP, read-out: IC50 WT (nM) Km ATP) [nM] | IC50 (EGFR L858R/C797S; Km ATP, read-out: IC50 L858R/C797S (nM) Km ATP) [nM] | IC50 (EGFR L858R/T790M/C797S; Km ATP, read-out: IC50 L858R/T790M/C797S (nM) Km ATP) [nM] | IC50 (EGFR Del19/C797S; Km ATP, read-out: IC50 Del19/C797S (nM) Km ATP) [nM] | IC50 (EGFR Del19/T790M/C797S; Km ATP, read-out: IC50 Del19/T790M/C797S (nM) Km ATP) [nM] | IC50 (EGFR wildtype (WT); [5]) [nM] | IC50 (EGFR L858R/C797S; [6]) [nM] | IC50 (EGFR L858R/T790M/C797S; [7]) [nM] | IC50 (EGFR Del19/C797S; [8]) [nM] | IC50 (EGFR Del19/T790M/C797S; [9]) [nM] | IC50 (EGFR wildtype (WT); [10]) [nM] | IC50 (EGFR L858R/C797S; [11]) [nM] | IC50 (EGFR L858R/T790M/C797S; [12]) [nM] | IC50 (EGFR Del19/C797S; [13]) [nM] | IC50 (EGFR Del19/T790M/C797S; [14]) [nM]
Cn1ncc(C#Cc2cnc(Nc3ccnc(-c4cnn(S(=O)(=O)C5CC5)c4)n3)cc2N2CCC(CCO)CC2)c1C1CC1 [Example 87, 2-(1-(5-((5-Cyclopropyl-1-methyl-1H-pyrazol-4-yl)ethynyl)-2-((2-(1-(cyclopropylsulfonyl)-1H-pyrazol-4-yl)pyrimidin-4-yl)amino)pyridin-4-yl)piperidin-4-yl)ethan-1-ol] | > 10000 | 40.5 | 6.2 | 26.3 | 2.3 | – | – | – | – | – | – | – | – | – | – | – | – | – | – | –
Cn1cc(C#Cc2cnc(Nc3ccnc(-c4cnn(S(=O)(=O)C5CC5)c4)n3)cc2N2CCC(F)CC2)cn1 [Example 8, 2-(1-(Cyclopropylsulfonyl)-1H-pyrazol-4-yl)-N-(4-(4-fluoropiperidin-1-yl)-5-((1-methyl-1H-pyrazol-4-yl)ethynyl)pyridin-2-yl)pyrimidin-4-amine] | > 10000 | 33.2 | 2.2 | 9.5 | 3.1 | – | – | – | – | – | – | – | – | – | – | – | – | – | – | –
CN(C)CC1CCN(c2cc(Nc3ccnc(-c4cnn(S(=O)(=O)C5CC5)c4)n3)ncc2C#Cc2cnn(CC(F)F)c2)CC1 [Example 301, 2-(1-(Cyclopropylsulfonyl)-1H-pyrazol-4-yl)-N-(5-((1-(2,2-difluoroethyl)-1H-pyrazol-4-yl)ethynyl)-4-(4-((dimethylamino)methyl)piperidin-1-yl)pyridin-2-yl)pyrimidin-4-amine] | > 10000 | 138 | 1.4 | 4.9 | 0.7 | – | – | – | – | – | – | – | – | – | – | 22.9 | 11.2 | 0.6 | 7.2 | 0.6
CC1(CO)CCN(c2cc(Nc3ccnc(-c4cnn(S(C)(=O)=O)c4)n3)ncc2C#Cc2cnn(C(F)(F)F)c2)CC1 [Example 268, (4-Methyl-1-(2-((2-(1-(methylsulfonyl)-1H-pyrazol-4-yl)pyrimidin-4-yl)amino)-5-((1-(trifluoromethyl)-1H-pyrazol-4-yl)ethynyl)pyridin-4-yl)piperidin-4-yl)methanol] | > 10000 | 116 | 2.9 | 59.6 | 6.2 | – | – | – | – | – | – | – | – | – | – | 105 | 41.8 | 1 | 26.6 | 2.4
O=S1(=O)CCC(C#Cc2cnc(Nc3ccnc(-c4cnn(S(=O)(=O)C5CC5)c4)n3)cc2NC2CCC(CO)CC2)C1 (stereo not drawn) [Example 428, 3-((6-((2-(1-(Cyclopropylsulfonyl)-1H-pyrazol-4-yl)pyrimidin-4-yl)amino)-4-(((1s,4s)-4-(hydroxymethyl)cyclohexyl)amino)pyridin-3-yl)ethynyl)tetrahydrothiophene 1,1-dioxide] | > 10000 | 28.5 | 0.2 | 1.9 | 0.5 | – | – | – | – | – | 18.6 | 4.9 | 0.1 | 4 | 0.1 | – | – | – | – | –

Second part, the compound after the results:

IC50 (EGFR wildtype (WT); IC50 WT (nM), 100 μM ATP) [nM] | IC50 (EGFR L858R/C797S; [1]) [nM] | IC50 (EGFR L858R/T790M/C797S; [2]) [nM] | IC50 (EGFR Del19/C797S; [3]) [nM] | IC50 (EGFR Del19/T790M/C797S; [4]) [nM] | IC50 (EGFR wildtype (WT); Km ATP, read-out: IC50 WT (nM) Km ATP) [nM] | IC50 (EGFR L858R/C797S; Km ATP, read-out: IC50 L858R/C797S (nM) Km ATP) [nM] | IC50 (EGFR L858R/T790M/C797S; Km ATP, read-out: IC50 L858R/T790M/C797S (nM) Km ATP) [nM] | IC50 (EGFR Del19/C797S; Km ATP, read-out: IC50 Del19/C797S (nM) Km ATP) [nM] | IC50 (EGFR Del19/T790M/C797S; Km ATP, read-out: IC50 Del19/T790M/C797S (nM) Km ATP) [nM] | IC50 (EGFR wildtype (WT); [5]) [nM] | IC50 (EGFR L858R/C797S; [6]) [nM] | IC50 (EGFR L858R/T790M/C797S; [7]) [nM] | IC50 (EGFR Del19/C797S; [8]) [nM] | IC50 (EGFR Del19/T790M/C797S; [9]) [nM] | IC50 (EGFR wildtype (WT); [10]) [nM] | IC50 (EGFR L858R/C797S; [11]) [nM] | IC50 (EGFR L858R/T790M/C797S; [12]) [nM] | IC50 (EGFR Del19/C797S; [13]) [nM] | IC50 (EGFR Del19/T790M/C797S; [14]) [nM] | SMILES
> 10000 | 1230 | 8.5 | 87.3 | 3.5 | 1070 | 104 | 2.8 | 66.8 | 2.7 | – | – | – | – | – | – | – | – | – | – | O=S(=O)(C1CC1)n1cc(-c2nccc(Nc3cc(N[C@H]4CCC[C@H](O)C4)c(C#Cc4cnn(C(F)(F)F)c4)cn3)n2)cn1 [Example 103, (1 S,3S)-3-((2-((2-(1-(Cyclopropylsulfonyl)-1H-pyrazol-4-yl)pyrimidin-4-yl)amino)-5-((1-(trifluoromethyl)-1H-pyrazol-4-yl)ethynyl)pyridin-4-yl)amino)cyclohexan-1-ol]
> 10000 | 29.7 | 1 | 7.5 | 0.9 | – | – | – | – | – | 18.2 | 4.9 | 0.5 | 3.8 | 1 | – | – | – | – | – | O=S(=O)(C1CC1)n1cc(-c2nccc(Nc3cc(N[C@H]4CC[C@@H](O)CC4)c(C#Cc4cnn(CC(F)(F)F)c4)cn3)n2)cn1 [Example 339, (1s,4s)-4-((2-((2-(1-(Cyclopropylsulfonyl)-1H-pyrazol-4-yl)pyrimidin-4-yl)amino)-5-((1-(2,2,2-trifluoroethyl)-1H-pyrazol-4-yl)ethynyl)pyridin-4-yl)amino)cyclohexan-1-ol]
